Source: patent publication US20080188564A1, “Insecticidal and Nematicidal Compositions and Methods of Use” (priority 2004, published 2008)

How the values were obtained:
[1] = system: voltage-gated chloride channels; settings: Torpedo membranes vs rat brain membranes; cited from earlier work
[2] = system: Caenorhabditis elegans; settings: at 100 ug/ml; cited from earlier work
[3] = system: Meloidogyne incognita; settings: at 100 ug/ml; cited from earlier work
[4] = system: H. megidis; settings: concentrations up to 200 ug/ml; cited from earlier work
[5] = system: C. elegans; test: Toxicity of DIDS on C. elegans (96 well plate); assay type: in vivo, Caenorhabditis elegans
Procedure: (§1) We determined the toxicity of DIDS to infective juveniles of M. incognita and H. bacteriophora. Infective juveniles were assayed because they represent the only free-living life stage for both nematode species; adults live within their respective hosts and are not amenable to this type of test. Further, the infective juvenile of M. incognita would likely be the target of a nematicide based upon this material. The tests were conducted in either 35 mm Petri dishes or 96 well plates, holding the test material dissolved in DMSO and dispersed into tap water. Each dish was considered a replicate and contained 10-30 nematodes of either species. Each well of the 96-well plates had one nematode.
(§2) To further characterize the nematode-inhibiting effect of a stilbene compound (DIDS), experiments were performed as described above, using a 96 well plate and 10-30 nematodes per well, and using the plant parasite M. incognita and the free-living C. elegans. The results are depicted in Tables 1 and 2.

[6] = system: M. incognita; test: Toxicity of DIDS on M. incognita infective juveniles; assay type: in vivo, Meloidogyne incognita
Procedure: Meloidogyne incognita cultures were maintained on potted tomatoes (c.v. Rutgers) in a greenhouse. Infective juvenile nematodes for analysis were extracted as eggs from infected tomato roots by shaking the roots in 1% bleach for 2 minutes. Eggs were captured in a 500-mesh sieve, rinsed in water and placed in Baerman funnels. When the eggs hatched, the juveniles moved downward in the funnels, and hatched infective juveniles were collected after 48 hours.
as §1
DIDS-H.b.=DIDS-exposed H. bacteriophora; DIDS-M.i.=DIDS-exposed Meloidogyne incognita. DIDS was dissolved in DMSO, and DMSO-M.i.=DMSO-exposed Meloidogyne incognita. Average percentage mortality for each treatment group was calculated from 5 replicates containing 10 nematodes each. Bars are means±SEM.
as §2

Cl[C@H]1[C@H](Cl)[C@@H](Cl)[C@@H](Cl)[C@H](Cl)[C@H]1Cl [lindane]
potency as inhibitor of [35S]TBPS binding, Torpedo membranes relative to rat brain [1]: about 4 fold

CC(C)c1c(O)cc(C=Cc2ccccc2)cc1O [DST, 3,5-dihydroxy-4-isopropylstilbene]
24 hr lethality [2]: 100% | 24 hr lethality [3]: 100% | sensitivity to DST [4]: completely insensitive

O=S(=O)(O)c1cc(N=C=S)ccc1/C=C/c1ccc(N=C=S)cc1S(=O)(=O)O [DIDS, trans-4,4′-diisothiocyanatostilbene-2,2′-disulfonic acid]
LC50 ([5]; 1-day (24 hr)): 196.13 ppm | Slope ([5]; 1-day (24 hr)): 1.43 ± 0.35 | LC50 ([5]; 2-day (48 hr)): 83.70 ppm | Slope ([5]; 2-day (48 hr)): 1.45 ± 0.29 | LC50 ([5]; 3-day (72 hr)): 31.53 ppm | Slope ([5]; 3-day (72 hr)): 1.87 ± 0.28 | LC50 ([5]; 5-day (120 hr)): 15.69 ppm | Slope ([5]; 5-day (120 hr)): 2.86 ± 0.36 | LC50 ([5]; 7-day (168 hr)): 10.67 ppm | Slope ([5]; 7-day (168 hr)): 4.57 ± 0.71 | time until toxic ([5]; DIDS at 10 ppm): 2 days | time to paralysis ([5]; free-living nematode): 2 days | LC50 ([6]; 1-day (24 hr)): 160.03 ppm | Slope ([6]; 1-day (24 hr)): 1.77 ± 0.50 | LC50 ([6]; 2-day (48 hr)): 97.91 ppm | Slope ([6]; 2-day (48 hr)): 1.52 ± 0.30 | LC50 ([6]; 3-day (72 hr)): 37.84 ppm | Slope ([6]; 3-day (72 hr)): 1.83 ± 0.30 | LC50 ([6]; 5-day (120 hr)): 17.07 ppm | Slope ([6]; 5-day (120 hr)): 2.75 ± 0.36 | LC50 ([6]; 7-day (168 hr)): 11.58 ppm | Slope ([6]; 7-day (168 hr)): 4.04 ± 0.59 | toxicity (mortality) to nematodes ([6]; 24 hr, 100 ug/ml (200 uM), in DMSO/tap water): paralytic/lethal | time until toxic ([6]; DIDS at 10 ppm): 2 days | time to paralysis ([6]; plant parasite nematode): 2 days
